# Measured values: publication PMC6828666, “Discovery of holoenzyme-disrupting chemicals as substrate-selective CK2 inhibitors” (Scientific Reports, 2019)
# Legend:
# CK2 = target: T1, CK2 (Homo sapiens, UniProt P68400); assay: CK2 kinase assay with CK2β-independent peptide substrate […]; type: biochemical
# T1 construct: made in house; host or cells: Escherichia coli (CK2α)
# Procedure: The following peptide substrates were employed: a canonical CK2 peptide substrate […] phosphorylated equally by CK2α and CK2α2β2 (CK2β-independent peptide substrate), and […] exclusively phosphorylated by CK2α2β2 (CK2β-dependent peptide substrate)[4]. GST-Olig2-(1-177), was used as a CK2β-dependent protein substrate.
# CK2 kinase assays were performed in a final assay volume of 18 μL containing 3 μL of compounds, 3 μL of CK2α (36 ng) and a mixture of 1 mM peptide substrate, 10 mM MgCl2, and 1 μCi [γ^32P]-ATP. Final concentration of ATP was 100 μM. Assays were performed under linear kinetic conditions for 5 min at room temperature before termination by the addition of 60 μL of 4% TCA. ^32P incorporation in peptide substrate was determined as previously described.
# Fig. S6. […] (a) Dose-dependent inhibition of CK2. CK2α (40 nM) was incubated with increasing concentrations of compound 1 (●), 4 (π) or 6 (○) in the presence of 20 nM CK2β. CK2 activity was determined with a saturating concentration of CK2β-dependent peptide substrate. (b) Differential effects of 6 on the phosphorylation of CK2 peptide substrates. CK2α (40 nM) was incubated with increasing concentrations of 6 in the presence of 20 nM CK2β. CK2 activity was determined with a saturating concentration of CK2β-independent peptide substrate (?) or CK2β-dependent peptide substrate (○). […]
# CK2α/CK2β interaction = CK2α/CK2β interaction (Homo sapiens, UniProt P68400); assay: SPR competition study of MBP-CK2β binding to GST-CK2α; settings: 70 μM
# Sequence of CK2α/CK2β interaction (P68400 whole entry): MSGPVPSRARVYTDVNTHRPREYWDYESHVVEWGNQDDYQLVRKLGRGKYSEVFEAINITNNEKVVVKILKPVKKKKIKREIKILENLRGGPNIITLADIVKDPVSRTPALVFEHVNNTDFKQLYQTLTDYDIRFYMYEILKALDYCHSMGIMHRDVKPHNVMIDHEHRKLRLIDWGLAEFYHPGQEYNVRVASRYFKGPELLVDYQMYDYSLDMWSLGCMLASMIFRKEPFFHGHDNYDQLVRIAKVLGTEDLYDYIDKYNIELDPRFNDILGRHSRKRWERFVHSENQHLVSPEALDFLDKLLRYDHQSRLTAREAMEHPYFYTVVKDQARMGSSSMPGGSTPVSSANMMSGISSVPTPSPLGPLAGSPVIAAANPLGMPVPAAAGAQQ
# Procedure: SPR competition studies (Fig. 2i) were performed using a BIAcore 3000 instrument (BIAcore AB) equipped with a CM5 sensor chip (BIAcore AB). After activation with a solution of N-hydroxysuccinimide and N-ethyl-N-(dimethylaminopropyl)carbodiimide hydrochloride (coupling solution BIAcore AB), the anti-GST antibody diluted at 30 μg/ml in 10 mM acetate buffer pH 5.0 was injected at a flow rate of 5 μL/min for 7 min. All the surfaces were blocked with a 3 min injection at 10 μL/min of 1 M ethanolamine, pH 8.0. GST-CK2α (50 μg/ml) was immobilized on the surface at a flow rate of 5 μL/min in HBS (10 mM Hepes pH 7.3, 0.15 M NaCl, 3 mM EDTA, 0.005% polysorbate 20). MBP-CK2β diluted at 50 μg/ml in HBS buffer was injected over the surface at a flow rate of 5 μL/min in presence of various compound 1 concentration. Regeneration of the surfaces was achieved by injection of 10 mM glycine-HCl pH 2.2. SPR binding studies (Supplementary Fig. S7) were performed using a Reichert SR7000DC instrument optical biosensor (Reichert Technologies) equipped with a CMD500m sensor chip obtained from XanTec Bioanalytics. CK2α was immobilized by a capturing approach using a monoclonal anti-GST antibody (27 kDa, Clone GST-R 6G9 produced in rat, SAB4200055 Sigma Aldrich). […]
# CK2α = CK2α (Homo sapiens, UniProt P68400); assay: Steady state kinetic analysis of CK2 inhibition (Lineweaver-Burk); type: biochemical; set-up: made in house; host or cells: Escherichia coli (CK2α); settings: for Ki: increasing ATP
# Sequence of CK2α (P68400 whole entry): as above
# Procedure: Steady state kinetic analysis of compound 1 complexation with CK2 was performed by incubation of CK2α with increasing concentrations of CK2β in the presence of different concentrations of the compound. ATP and eIF2-derived peptide were present at their saturating concentrations, 100 μM and 600 μM, respectively (Fig. 3e).
# In the presence of 100 μM of compound 1, adding increasing concentrations of CK2β-dependent peptide at a saturating concentration of ATP (100 μM) had no effect on the extent of inhibition (Fig. 2d) showing that the inhibition is also not competitive with the peptide substrate. Using steady-state kinetic analysis, we examined the effects of increasing ATP concentrations on the inhibition of phosphorylation by compound 1. In the presence of a saturating concentration of the CK2β-dependent peptide substrate (133 μM), increasing ATP concentrations reduced the level of inhibition but could not restore either the maximal velocity of the enzyme, Vmax, or the Michaelis constant, km, for ATP.
# For Olig2 phosphorylation assay, GST-Olig2 fusion protein (3.7 μg) was incubated with 200 nM CK2α, in the absence or presence of 50 μM compound 1 and increasing concentrations of CK2β. Samples were analyzed by SDS PAGE and subjected to autoradiography. Phosphoproteins were quantified by densitometry scanning. For eIF2 peptide phosphorylation assay, the CK2β-dependent peptide substrate (600 μM) was incubated with CK2α (40–50 nM) and increasing concentrations of compound 1 or/and CK2β.
# Fig. S2. Ki and Ki’ value determination from enzymatic kinetic characterization of CK2 inhibition by compound 1. (a) Ki value has been calculated from linear regression analysis of the slopes (α/Vmax) of the Lineweaver-Burk double reciprocal plots of Fig 2f. (b) Ki’ value has been calculated from linear regression analysis of the y-intercept (α’/Vmax) of Lineweaver-Burk double reciprocal plots of Fig 2f.
# T1 sequence (P68400 whole entry): as above
SMILES,"inhibition at 50 µM (CK2; at 50 μM, read-out: inhibition of phosphorylation of canonical CK2β-independent peptide substrate)",reduction of SPR signal (MBP-CK2β binding to GST-CK2α) (CK2α/CK2β interaction),"Ki (CK2α; for CK2α, Lineweaver-Burk slopes)","Ki (CK2α; for the CK2α-ATP complex, Lineweaver-Burk y-intercepts)","Ki' (mixed competitive inhibition towards CK2β) (CK2α; for the CK2α-ATP complex, increasing CK2β, ATP 100 μM, eIF2-derived peptide 600 μM)","phosphorylation of the CK2β-independent peptide substrate (CK2; increasing concentrations, 40 nM CK2α, 20 nM CK2β)"
COc1[nH]c2ccc(F)cc2c1C(=O)OCC1CCN(CCNS(C)(=O)=O)CC1 [Compound 1],15%,about 60%,12 µM,62 µM,~65 µM,
COc1[nH]c2ccc(F)cc2c1C(=O)OCC1CCN(CCNS(=O)(=O)c2ccccc2)CC1.Cl [Compound 6],,,,,,only weakly affected
